From US9302999B2, “Substituted triazoles as herbicides” (E. I. DU PONT DE NEMOURS AND COMPANY, priority 2012, dated 2016) come the findings set out here.

Assay type in all cases: in vivo
In experiment [1] the test system is smartweed (ladysthumb smartweed, Polygonum persicaria). The experiment can be described thus: Test E pre-/postemergence: smartweed. Particulars: Postemergence, scale 0 to 100. From the text: Seeds of plant species selected from corn (Zea mays), soybean (Glycine max), velvetleaf (Abutilon theophrasti), lambsquarters (Chenopodium album), poinsettia, wild (wild poinsettia, Euphorbia heterophylla), pigweed, palmer (palmer pigweed, Amaranthus palmeri), waterhemp (common waterhemp, Amaranthus rudis), smartweed (ladysthumb smartweed, Polygonum persicaria), surinam grass (Brachiaria decumbens), crabgrass, large (large crabgrass, Digitaria sanguinalis), crabgrass, Brazil (Brazilian crabgrass, Digitaria horizontalis), panicum, fall (fall panicum, Panicum dichotomiflorum), foxtail, giant (giant foxtail, Setaria faberii), foxtail, green (green foxtail, Setaria viridis), goosegrass (Eleusine indica), johnsongrass (Sorghum halepense), ragweed (common ragweed, Ambrosia elation), barnyardgrass (Echinochloa crus-galli), sandbur (southern sandbur, Cenchrus echinatus), arrowleaf sida (Sida rhombifolia), ryegrass, Italian (Italian ryegrass, Lolium multiflorum), dayflower, (VA) (Virginia dayflower, Commelina virginica), field bindweed (Convolvulus arvensis), cocklebur (common cocklebur, Xanthium strumarium), morningglory (Ipomoea coccinea), nightshade (eastern black nightshade, Solanum ptycanthum), kochia (Kochia scoparia), nutsedge, yellow (yellow nutsedge, Cyperus esculentus) and beggarticks (hairy beggarticks, Bidens pilosa) were planted into a silt loam soil and treated preemergence with test chemicals formulated in a non-phytotoxic solvent mixture which included a surfactant. At the same time, plants selected from these crop and weed species were planted in pots containing a growing medium comprising spaghnum peat moss, vermiculite, wetting agent and starter nutrients and treated with postemergence applications of some of the test chemicals formulated in the same manner. Plants ranged in height from 2 to 18 cm for postemergence treatments (1- to 4-leaf stage).
Treated plants and controls were maintained in a greenhouse for 14 to 21 days, after which time all species were compared to controls and visually evaluated. Plant response ratings, summarized in Table E, are based on a scale of 0 to 100 where 0 is no effect and 100 is complete control. A dash (-) response means no test result.

In experiment [2] the test system is canarygrass (PHAMI, Phalaris minor). The experiment is described as follows: Test H post-emergence, alone and in combination: canarygrass. From the text: (§1) Seeds of plant species selected from wheat (TRZAW, Triticum aestivum), barley (HORBW, Hordeum vulgare), Kochia (KCHSC, Kochia caoparia) blackgrass (ALOMY, Alopecurus myosuroides), canarygrass (PHAMI, Phalaris minor), Italian ryegrass (LOLMU, Lolium multiflorum) common lambsquarter (CHEAL, Chenopodium album), pigweed (AMARE, Amaranthus retroflexus), Common Chickweed (STEME, Stellaria media), Russian thistle (SASKR, Salsola iberica), Wild Buckwheat (POLCO, Polygonum convolvulus), Catchweed Bedstraw (GALAP, Galium aparine), Mustard (SINAR, Sinapisar arvensis), Henbit Deadnettle (LAMAM, Lamium amplexicaule), Wild Radish (RAPRA, Raphanus raphanistrum), Field Poppy (PAPRH, Papaver rhoeas), Field Violet (VIOAR, Viola arvennsis), Scentless Chamomile (MATIN Matricaria inodora) were planted into soil and treated post-emergence with test chemicals formulated in a non-phytotoxic solvent mixture. Plants were grown in a greenhouse using supplemental lighting to maintain a photoperiod of approximately 14 hours; daytime and nighttime temperatures were approximately 23°-29° and 16°-19° Celsius, respectively. Balanced fertilizer was applied through the watering system. Treated plants and controls were maintained in a greenhouse for 20 days, after which time all species were compared to controls and visually evaluated. Plant response ratings were calculated as the mean of three replicates (unless otherwise indicated), are summarized in Table G, and are based on a scale of 0 to 100 where 0 is no effect and 100 is complete control. A dash (-) response means no test result.

Experiment [3] has as its system common lambsquarter (CHEAL, Chenopodium album). The experiment can be described thus: Test H post-emergence, alone and in combination: common lambsquarter.
Text: as §1

The test system of experiment [4] is pigweed (AMARE, Amaranthus retroflexus). The experiment is described as follows: Test H post-emergence, alone and in combination: pigweed.
Text: as §1

For experiment [5], the system named is Common Chickweed (STEME, Stellaria media). The experiment is described as follows: Test H post-emergence, alone and in combination: Common Chickweed.
Text: as §1

Experiment [6] deals with Mustard (SINAR, Sinapisar arvensis). The experiment is described as follows: Test H post-emergence, alone and in combination: Mustard.
Text: as §1

The subject of experiment [7] is Wild Radish (RAPRA, Raphanus raphanistrum). The experiment can be described thus: Test H post-emergence, alone and in combination: Wild Radish.
Text: as §1

Experiment [8] has as its system Field Poppy (PAPRH, Papaver rhoeas). The experiment can be described thus: Test H post-emergence, alone and in combination: Field Poppy.
Text: as §1

For experiment [9], the system named is Scentless Chamomile (MATIN Matricaria inodora). The experiment is described as follows: Test H post-emergence, alone and in combination: Scentless Chamomile.
Text: as §1

`Cc1nn(-c2ccc(C(F)(F)F)cc2)nc1Cc1ccnc(C(F)(F)F)c1` [Compound 47, 4-[[5-methyl-2-[4-(trifluoromethyl)phenyl]-2H-1,2,3-triazol-4-yl]methyl]-2-(trifluoromethyl)pyridine]: the “Plant response rating: Smartweed” value in [1] (250 g ai/ha) was 85; in experiment [1] (16 g ai/ha), 30; in experiment [1] (31 g ai/ha), 40; in experiment [1] (62 g ai/ha), 50; in [1] (125 g ai/ha), 80.
`Cc1nn(-c2ccc(F)cc2)nc1Oc1ccnc(C(F)(F)F)c1` [Compound 129, 4-[[2-(4-fluorophenyl)-5-methyl-2H-1,2,3-triazol-4-yl]oxy]-2-(trifluoromethyl)pyridine]: the PHAMI plant response in [2] (Rate 31) is reported as 15; in experiment [2] (Rate 62), 20; in [2] (Rate 125), 60. In addition, the CHEAL plant response came out at 85 in [3] (Rate 31), 80 in experiment [3] (Rate 62) and 90 in experiment [3] (Rate 125). For the same compound, the values for the AMARI plant response in [4] (Rate 31), in experiment [4] (Rate 62) and in experiment [4] (Rate 125) were 80, 90 and 95, respectively. In addition, the STEME plant response was 50 in [5] (Rate 31), 70 in [5] (Rate 62) and 80 in experiment [5] (Rate 125). For the same compound, the SINAR plant response in experiment [6] (Rate 31) is recorded as 80; in [6] (Rate 62), 95; in experiment [6] (Rate 125) it was 95. The RAPRA plant response in [7] (Rate 31) is reported as 60; in experiment [7] (Rate 62) it was 85; in experiment [7] (Rate 125) it was 90. For the same compound, the PAPRH plant response was determined as 85 in experiment [8] (Rate 31), 90 in experiment [8] (Rate 62) and 90 in experiment [8] (Rate 125). The MATIN plant response is given as 0 in [9] (Rate 31), 5 in experiment [9] (Rate 62) and 10 in [9] (Rate 125).
